Source: patent publication US20170204187A1, “METHODS OF TREATING AND PREVENTING CANCER DRUG RESISTANCE” (Genentech, Inc., priority 2014, published 2017)
Entries after “also recorded” stand apart in the source; their conditions may differ.

Key:
LOX-IMVI VemR cell line = test: LOX-IMVI VemR resensitization to vemurafenib by FGFR antagonists (FIG. 2B); assay type: cell-based; conditions: for effect on the cell line / resensitization to vemurafenib: FGFR antagonist 1 μM in combination with 5 μM vemurafenib
Experimental: FIG. 2A-E.|A cell line (“LOX-IMVI VemR”) was engineered to be resistant to vemurafienib. A, An image of an immunoblot of 11 cell lines probed for FGFR1 expression. B, The LOX-IMVI VemR cell line is not affected by 5 μM vemurafenib (i.e., “PLX”) as shown in the DMSO plot; however, the cell line is affected by 5 μM vemurafenib in combination with an antagonist of FGFR signalling (i.e., BGJ398, PD173074, and AP24534).
The Lox-IMVI VemR cell line was used as the model of acquired resistance in B-raf mutant melanoma. 11 cell lines were tested for FGFR1 expression using a Western blot. Of the cell lines tested, FGFR1 expression was detected in the LOX-IMVI (vemurafenib sensitive) and LOX-IMVI VemR (vemurafenib resistant) lines (FIG. 2A).

LOX-IMVI VemR cells = test: In vitro combination study vemurafenib + BGJ398, Vem-resistant cell outgrowth (FIG. 3A); assay type: cell-based
SK-MEL-24 cell line = test: In vitro combination study vemurafenib + BGJ398 (FIG. 3A); assay type: cell-based; conditions: PLX4032 combined with FGFR antagonist
From the text: (§1) FIG. 3A-B.|FGFR-inhibition prevents Vem-resistant cell outgrowth. […] B, Expression patterns of select proteins are shown on West Blots in the presence of vemurafenib (PLX4032), an antagonist of FGFR signalling (NV-BGJ398), and/or FGF2.

SK-MEL-3 cell line = test: as above; assay type: cell-based; conditions: PLX4032 combined with FGFR antagonist
From the text: as §1

LOX-IMVI tumors = test: In vivo tumor volume, parental vemurafenib sensitive tumors; conditions: for tumor volume: vemurafenib 25 mg/kg
Experimental: (§2) FIG. 4A-C.|The LOX-IMVI VemR cell line has FGFR-mediated vemurafenib resistance in vivo. A, LOX-IMVI cells (parental cell line) are sensitive to vemurafenib.
(§3) The vemurafenib resistance and recovery of the LOX-IMVI VemR cell line was also studied in vivo. The tumor volume (mm^3) was measured in LOX-IMVI (parental, vemurafenib sensitive) tumors and in LOX-IMVI VemR (vemurafenib resistant) tumors in the presence of vemurafenib, BGJ398, or vemurafenib and BGJ398 ([…]).

LOX-IMVI VemR tumors = test: In vivo tumor volume, vemurafenib resistant tumors; conditions: for tumor volume / efficacy: combination treatment of vemurafenib and BGJ398
Experimental: as §2, §3

HCC1569 cells = test: Innate resistance model, sensitization to lapatinib (FIG. 20A); assay type: cell-based; conditions: 100 nM BGJ398 with 5 μM lapatinib
Experimental: (§4) FIG. 20 A-C.|HER2+ breast cancer models of innate resistance. A, FGFR inhibitor (BGJ398) sensitizes HCC1569 cells to lapatinib. B, FGFR inhibitor (BGJ398) sensitizes MDA-MB-453 cells to lapatinib.
(§5) The innate resistant HER2+ breast cancer cell lines were HCC1569 and MDA-MB-453. HC1569 expressed FGFR2 (detected by Western blot) and secreted FGF2 (detected by ELISA). FGFR ECD chimeras from the HCC1569 line were sensitized to lapatinib. Furthermore, HC1569 cells that were treated with FGFR inhibitor(s) sensitized the cells to lapatinib. […] MDA-MB-453 cells that were treated with FGFR inhibitor(s) sensitized the cells to lapatinib.
(§6) HCC1569 and MDA-MB-453 cells were treated with 100 nM afatinib, 100 nM crizotinib, or 100 nM BGJ398 in the presence or absence of 5 μM lapatinib (FIGS. 20A and 20B).

MDA-MB-453 cells = test: Innate resistance model, sensitization to lapatinib (FIG. 20B); assay type: cell-based; conditions: 100 nM BGJ398 with 5 μM lapatinib
Experimental: as §4, §5, §6

[1] = test system: HER2+ breast cancer models of innate resistance; test: Tumor volume, lapatinib + FGFR inhibitor (FIG. 20C); assay type: in vivo; conditions: combination treatment of lapatinib and BGJ398
[2] = test system: HER2+ breast cancer cell lines (AU565, BT-474, HCC1954, SK-BR-3, and UACC-893); test: Block of FGF2 rescue in lapatinib/FGF2 treated cells (FIG. 19A); assay type: cell-based; conditions: cells treated with lapatinib and FGF2, then FGFR pan inhibitor
Experimental: FIG. 19 A-D.|FGFR4 mediates FGF2 rescue in HER2+ breast cancer. A, Percent rescue of cells treated with lapatinib and FGF2. B, Immunoblot of cells treated with lapatinib and FGF2. C, TCGA breast cancer samples (n=913) show high […] levels in breast cancer. D, HER2+ breast cancer cells are enriched for high FGFR4.
HER2+ breast cancer cell lines (AU565, BT-474, HCC1954, SK-BR-3, and UACC-893) were treated with lapatinib and FGF2. Thereafter, the cells were either exposed to siRNA targeting FGFR1, FGFR2, FGFR3, or FGFR4 or exposed to the FGFR pan inhibitor BGJ398 (FIG. 19A). […] Immunoblots were also performed to detect IP/pTyr/IB:FGFR4, FGFR4, pERK, ERK, and actin (control) in cells treated with lapatinib in the presence and absence of FGF2 (FIG. 19B).

[3] = test system: 624 melanoma cells made resistant to PLX4032; test: pAKT in PLX4032-resistant 624 melanoma cells (FIG. 8B-C); assay type: cell-based; conditions: treated with PLX4032
Experimental: FIG. 8 A-C.|Activation of PI3K represents an alternative mechanism of B-raf-mutant melanomas. A, A synthetic lethal chemical screen identified PI3K-dependent resistance to PLX4032. […] Co-treatment with a […] was needed to growth arrest the 624 ml VemR cells in the presence of PLX4032.

B-raf mutant melanoma = conditions: cited from earlier work
LOX-IMVI cells = test: Secreted factor rescue screen on LOX-IMVI (FIG. 23); assay type: cell-based
From the text: FIG. 23 A-C.|Vemurafenib resistant and sensitive cell lines can be used to determine and anticipate paths to resistance in patients. LOX-IMVI cells were rescued by FGF1, FGF2, EGF, and HGF in the screen. A, LOX-IMVI VemR cells were re-sensitized to PLX4032 by FGFR inhibition. B, Dual resistant LOX-IMVI VemR/FGFRi (i.e., resistant to vemurafenib and FGFR inhibitor) cells were re-sensitized to PLX4032 by EGFR inhibition. C, Triple resistant LOX-IMVI VemR/FGFRi/Erlotinib cells were re-sensitized to PLX4032 by MET inhibition.

[4] = test system: HER2+ breast cancer cell lines; test: FGF rescue screen, breast cancer lines (FIG. 15A); assay type: cell-based; conditions: 10 HER2+ breast cancer cell lines
Experimental: (§7) FIG. 15 A-C.|Screen of 10 melanoma cell lines and 10 breast cancer lines was performed to determine the role of FGF signalling in drug resistance. […] C, Summary of FGF receptors, their subfamily, and their ligands.
(§8) FGF signalling and resistance was studied in 10 HER2+ breast cancer cell lines and in 10 B-raf mutant melanoma cell lines (FIG. 15). 7 of the 10 HER2+ breast cancer cell lines were rescued by FGF2 (FIG. 15A). 8 of the 10 B-raf mutant melanoma cell lines were rescued by FGF2 (FIG. 15B). Subsequent analysis determined that 50-70% of the melanoma lines with the V600E mutation were rescued by FGF2 (n=30).

[5] = test system: B-raf mutant melanoma cell lines; test: Secreted factor / FGF rescue screen, melanoma lines (FIG. 1, FIG. 15B); assay type: cell-based; conditions: for rescue of tumor cells from B-raf and MEK antagonists: melanoma cell line, FIG. 1B
Experimental: (§9) FIG. 1A-D.|Factors secreted by tumor cells and/or the tumor microenvironment contribute to drug resistance through activation of cell-surface receptors. […] D, Secreted growth factors which promote resistance to PLX4032 reactivate MAPK and PI3K pathways. Activation of MAPK by FGF2, MAPK and AKT by HGF and AKT by NRG1 and SCF are shown in 624 MEL cells in the presence of PLX4032. Treatments were 5 μM PLX4032 for 24 hours and 50 ng·mL FGF2, HGF, NRGB1, or SCF for 10 minutes.
as §7, §8

624 MEL cells = test: Immunoblot of MAPK and PI3K pathway reactivation by secreted growth factors (FIG. 1D); assay type: cell-based; conditions: 5 μM PLX4032 for 24 hours; 50 ng·mL factor for 10 minutes
Experimental: as §9

[6] = test system: HER2+ breast cancer cells; test: Immunoblot of downstream signalling after FGF2 exposure (FIG. 16); assay type: cell-based; conditions: FGF2 50 ng/mL for 10 minutes or 24 hours, with or without lapatinib 2 μM
Experimental: FIG. 16 A-B.|FGF2 reactivates key signalling pathways to promote resistance and stimulates sustained activation of downstream signaling. A, An immunoblot of cells exposed to FGF2 for 10 min compared to cells absent exposure. B, An immunoblot of cells exposed to FGF2 for 24 hrs compared to cells absent FGF2 exposure.
Furthermore, it was determined that FGF2 reactivates key signalling pathways to promote resistance (FIG. 16). This was shown in a cell assay wherein HER2+ breast cancer cells were exposed to FGF2 (50 ng·mL) for 10 minutes in the presence or absence of lapatinib (2 μM) (FIG. 16A). Similarly, an assay was performed wherein HER2+ breast cancer cells were exposed to FGF2 (50 ng/mL) for 24 hours in the presence or absence of lapatinib (2 μM) (FIG. 16B).

B-raf-mutant melanomas = test: Immunoblot of MAPK reactivation in FGF2-mediated rescue (FIG. 7A); assay type: cell-based
From the text: FIG. 7 A-D.|Reactivation of MEK/ERK downstream of B-raf is a core mechanism of resistance in B-raf-mutant melanomas. A, MAPK signalling is required for FGF2-mediated resistance as shown by immunoblots. […] C, A synthetic lethal chemical screen was utilized to identify signalling pathways mediating resistance to PLX4032 in 12 acquired-resistance melanoma cell lines. […] D, Examples of the synthetic lethal chemical screen shown in FIG. 7C on specific cell lines.

With `Cc1ccc(C(=O)Nc2ccc(CN3CCN(C)CC3)c(C(F)(F)F)c2)cc1C#Cc1cnc2cccnn12` [AP24534] the “effect on the cell line / resensitization to vemurafenib” value (LOX-IMVI VemR cell line) was “resensitized to vemurafenib; also recorded: affected”.

In the case of `CCN1CCN(c2ccc(Nc3cc(N(C)C(=O)Nc4c(Cl)c(OC)cc(OC)c4Cl)ncn3)cc2)CC1` [BGJ398, 3-(2,6-Dichloro-3,5-dimethoxy-phenyl)-1-{6-[4-(4-ethyl-piperazin-1-yl)-phenylamino]-pyrimidin-4-yl}-1-methyl-urea], the “effect on the cell line / resensitization to vemurafenib” value (LOX-IMVI VemR cell line) is reported as “resensitized to vemurafenib; also recorded: affected”, the response to treatment (LOX-IMVI VemR cells; combination treatment of vemurafenib and BGJ398) is reported as “high response” and the response to treatment (LOX-IMVI VemR cells; single agent alone) is reported as “minimal response”. The “response to PLX4032” value (SK-MEL-24 cell line) was “augmented response”, the “response to PLX4032” value (SK-MEL-3 cell line) was “augmented response” and the “re-emergence of tumors following the end of treatment” value (LOX-IMVI tumors; co-treatment with BGJ398 and vemurafenib) was “can be prevented”. For the same molecule, the tumor volume (LOX-IMVI tumors; BID and BGJ398 15 mg/kg, QD) was “tumor volume decreased”, the “tumor volume / efficacy” value (LOX-IMVI VemR tumors) was “did show a decrease in tumor volume” and the “tumor volume / efficacy” value (LOX-IMVI VemR tumors; listed as NVP-BGJ398) was “potent efficacy”. The sensitization to lapatinib (HCC1569 cells) was “rescue the cell lines from drug resistance; also recorded: sensitizes”, the sensitization to lapatinib (MDA-MB-453 cells) was “rescue the cell lines from drug resistance; also recorded: sensitizes” and the tumor volume [1] was “decrease tumor volume; also recorded: Tumor volume decreases”. The “percent rescue from acquired resistance to lapatinib and FGF2” value [2] was “greatest percent rescue”.

In the case of `CCN(CC)CCCCNc1ncc2cc(-c3cc(OC)cc(OC)c3)c(NC(=O)NC(C)(C)C)nc2n1` [PD173074, N-[2-[[4-(diethylamino)butyl]amino]-6-(3,5-dimethoxyphenyl)pyrido[2,3-d]pyrimidin-7-yl]-N′-(1,1-dimethylethyl)-urea], the “effect on the cell line / resensitization to vemurafenib” value (LOX-IMVI VemR cell line) is reported as “resensitized to vemurafenib; also recorded: affected”.

In the case of `CCCS(=O)(=O)Nc1ccc(F)c(C(=O)c2c[nH]c3ncc(-c4ccc(Cl)cc4)cc23)c1F` [vemurafenib, N-(3-{[5-(4-chlorophenyl)-1H-pyrrolo[2,3-b]pyridin-3-yl]carbonyl}-2,4-difluorophenyl)propane-1-sulfonamide], the “effect on the cell line” value (LOX-IMVI VemR cell line; 5 μM vemurafenib (PLX) alone, DMSO plot) is reported as “not affected”, the response to treatment (LOX-IMVI VemR cells; single agent alone) is reported as “minimal response” and the tumor volume (LOX-IMVI tumors; BID alone) is reported as “tumor volume decreased; also recorded: sensitive”. The tumor volume (LOX-IMVI VemR tumors; vemurafenib alone) was “did not show a decrease in tumor volume”, the pAKT [3] was “increase in pAKT” and the “time to relapse following maximal response” value (B-raf mutant melanoma; majority of patients, residual tumor) was no more than 1 year. The patients who respond (B-raf mutant melanoma; patients) was “majority” and the “patients with tumor progression early in therapy” value (B-raf mutant melanoma; patients) was 10%.

For FGF1: secreted factor, FGFR ligand, the “rescue in the secreted factor screen” value (LOX-IMVI cells) was “rescued”.

For “FGF2: secreted growth factor, FGFR ligand, promotes resistance”, the “cell lines rescued by FGF2” value [4] was 7 of the 10, the “cell lines rescued by FGF2” value ([5]; 10 B-raf mutant melanoma cell lines) was 8 of the 10 and the “rescue of tumor cells from B-raf and MEK antagonists” value [5] was “most broadly and potently”. The “melanoma lines with the V600E mutation rescued by FGF2” value ([5]; subsequent analysis, n=30) was 50-70%, the “pathway activated in the presence of PLX4032” value (from here on “pathway activated”) (624 MEL cells) was “MAPK” and the “rescue in the secreted factor screen” value (LOX-IMVI cells) was “rescued”. The downstream signalling [6] was “sustained activation of downstream signalling” and the “MAPK signalling in the presence of PLX4032” value (B-raf-mutant melanomas) was “activates MEK and ERK”.

With “HGF: secreted growth factor which promotes resistance to PLX4032” the “rescue of tumor cells from B-raf and MEK antagonists” value [5] was “most broadly and potently”, the “pathway activated” value (624 MEL cells) was “MAPK and AKT” and the “rescue in the secreted factor screen” value (LOX-IMVI cells) was “rescued”.

For “SCF: secreted growth factor which promotes resistance to PLX4032”, the “pathway activated” value (624 MEL cells) was “AKT”.
